Where a name gives a salt, the structure may show the parent alone. Read-outs that look alike come from different tables or passages of the source. A value given as a limit tells only on which side of the number the result lay.

In general, IC50 refers to the concentration at which inhibition is half-maximal.

One assay addresses Recombinant Btk (Homo sapiens (Human), UniProt Q06187). Briefly: Btk kinase assay (TR-FRET). (In general: Time-resolved FRET reads energy transfer from a long-lived donor to a nearby acceptor.)
In assay [1] the target is phosphorylated Btk at Tyr223 in Ramos cells (Homo sapiens (Human), UniProt Q06187). Briefly: Btk pY223 cellular assay (HTRF) in Ramos cells. The format is cell-based. To be noted: 1 hour compound incubation, pervanadate or Na3VO4 stimulation.
Description: Btk pY223 cellular assay is a HTRF based assay intended to determine the endogenous levels of phosphorylated Btk at Tyr223.
Briefly, Ramos cells were serum starved in 0.5% FBS-containing RPMI1640 for 2 hours. Following starvation, the cells were incubated with compounds to be detected at various concentrations in a CO2 incubator for 1 hour. After incubation, cells were stimulated with 1 mM pervanadate (PV) or Na3VO4 (OV) for 20 min. Then, the cells were spinned down and lysed with 1× lysis buffer at RT for 10 min (4× lysis buffer supplied in the kit). During the incubation, 1× antibody mix was prepared by diluting anti-Btk-d2 and anti-pBtk-K in detection buffer (supplied in the kit). […] After that, 18 ul of cell lysate was transferred to the assay plate pre-loaded with antibody solution. After mixing gently and spinning briefly, the plate was sealed up and kept in dark at RT for 18 hours. […] IC50 values were calculated with GraphPad Prism software using the sigmoidal dose-response function.
[2] abbreviates: read-out: IC50 (nM) Btk, recombinant Btk, 1 hour pre-incubation, ATP at Km.

Chain of Recombinant Btk (Q06187 whole entry): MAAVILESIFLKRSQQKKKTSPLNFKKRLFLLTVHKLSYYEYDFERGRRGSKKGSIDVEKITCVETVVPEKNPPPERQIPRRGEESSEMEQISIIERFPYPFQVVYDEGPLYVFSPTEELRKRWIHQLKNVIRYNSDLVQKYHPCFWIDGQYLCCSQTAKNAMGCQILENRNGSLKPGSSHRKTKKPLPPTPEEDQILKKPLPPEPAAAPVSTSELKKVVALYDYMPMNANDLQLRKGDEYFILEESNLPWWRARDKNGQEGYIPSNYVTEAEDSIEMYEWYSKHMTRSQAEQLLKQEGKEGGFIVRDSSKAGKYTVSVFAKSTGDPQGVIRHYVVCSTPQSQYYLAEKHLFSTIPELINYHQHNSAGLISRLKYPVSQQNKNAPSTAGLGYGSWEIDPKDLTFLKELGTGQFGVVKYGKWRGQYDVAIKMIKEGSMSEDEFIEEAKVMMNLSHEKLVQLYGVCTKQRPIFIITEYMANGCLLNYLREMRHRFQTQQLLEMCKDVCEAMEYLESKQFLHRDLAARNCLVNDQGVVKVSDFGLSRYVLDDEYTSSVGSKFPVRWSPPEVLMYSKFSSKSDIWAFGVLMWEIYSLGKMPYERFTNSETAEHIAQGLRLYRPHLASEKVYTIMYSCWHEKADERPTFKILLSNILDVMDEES
Chain of phosphorylated Btk at Tyr223 in Ramos cells (Q06187 whole entry): as above

As to `C=CC(=O)N1CC[C@H]2[C@H](CNc3c(C(N)=O)c(-c4ccc(Oc5ccccc5)cc4)nn32)C1` (relative stereo) [Compound 30, Cis-7-Acryloyl-2-(4-phenoxyphenyl)-4,5,5a,6,7,8,9,9a-octahydro pyrazolo[1,5-a]pyrido[3,4-e]pyrimidine-3-carboxamide and Cis-7-acryloyl-2-(4-phenoxyphenyl)-4,4a,5,6,7,8,8a,9-octahydropyrazolo[1,5-a]pyrido[4,3-d]pyrimidine-3-carboxamide], the half-maximal inhibitory concentration (IC50) was 1 nM at Recombinant Btk and 4 nM in assay [1].

As for `CN(C)C/C=C/C(=O)N1CCC(C2CCNc3c(C(N)=O)c(-c4ccc(Oc5ccccc5)cc4)nn32)CC1` (single isomer, unassigned) [Compound 171, (R or S) (E)-7-(1-(4-(Dimethylamino)but-2-enoyl)piperidin-4-yl)-2-(4-phenoxyphenyl)-4,5,6,7-tetrahydropyrazolo-[1,5-a]pyrimidine-3-carboxamide], the IC50 at Recombinant Btk stood at 1.4 nM; in assay [1], 10.9 nM.

For `C=CC(=O)Nc1ccccc1C1CCNc2c(C(N)=O)c(-c3ccc(OCc4ccccc4)cc3)nn21` (stereo not shown) [Compound 10, 7-(2-Acrylamidophenyl)-2-(4-(benzyloxy)phenyl)-4,5,6,7-tetrahydro pyrazolo[1,5-a]pyrimidine-3-carboxamide], the IC50 on Recombinant Btk (setting [2]) stood at 1.5 nM; in assay [1], 8 nM.

Turning to `C=CC(=O)N1CC[C@H]2Nc3c(C(N)=O)c(-c4ccc(Oc5ccccc5)cc4)nn3C[C@H]2C1` [Compound 31], the IC50 on Recombinant Btk (setting [2]) is 15 nM.

Turning to `C=CC(=O)Nc1ccc2c(c1)CCNc1c(C(N)=O)c(-c3ccc(Oc4ccccc4)cc3)nn1-2` [Compound 72, 8-Acrylamido-2-(4-phenoxyphenyl)-5,6-dihydro-4H-benzo[f]pyrazolo[1,5-a][1,3]diazepine-3-carboxamide], the concentration for half-maximal inhibition (IC50) on Recombinant Btk (IC50 (nM) Btk, recombinant Btk, 1 hour pre-incubation, ATP at Km) turned out to be 4.1 nM; in assay [1], 10.5 nM.

On to `C=CC(=O)Nc1ccccc1C1CCNc2c(C(N)=O)c(-c3ccc(C(F)(F)F)c(Cl)c3)nn21` (stereo not shown) [Compound 162, 7-(2-Acrylamidophenyl)-2-(3-chloro-4-(trifluoromethyl)phenyl)-4,5,6,7-tetrahydropyrazolo[1,5-a]pyrimidine-3-carboxamide], for which half-maximal inhibition in assay [1] (IC50) was put at 3.2 nM.

Regarding `COc1cc(-c2nn3c(c2C(N)=O)NCCC3c2ccccc2NC(=O)/C=C/CN(C)C)ccc1C` (stereo not shown) [Compound 165, (E)-7-(2-(4-(Dimethylamino)but-2-enamido)phenyl)-2-(3-methoxy-4-methylphenyl)-4,5,6,7-tetrahydropyrazolo[1,5-a]pyrimidine-3-carboxamide], 19.1 nM corresponded to half-maximal inhibition in assay [1] (IC50).

`C=CC(=O)Nc1ccccc1C1CCNc2c(C(N)=O)c(-c3cc(Cl)c(OC)c(Cl)c3)nn21` (stereo not shown) [Compound 169, 7-(2-Acrylamido-phenyl)-2-(3,5-dichloro-4-methoxyphenyl)-4,5,6,7-tetrahydropyrazolo-[1,5-a]pyrimidine-3-carboxamide] registered an IC50 in assay [1] of 7 nM.

In assay [1], `NC(=O)c1c(-c2ccc(Oc3ccccc3)cc2)nn2c1NCCC2C1CCN(C(=O)/C=C/CN2CCCCC2)CC1` (stereo not shown) [Compound 170, (E)-2-(4-Phenoxyphenyl)-7-(1-(4-(piperidin-1-yl)but-2-enoyl)piperidin-4-yl)-4,5,6,7-tetrahydropyrazolo[1,5-a]pyrimidine-3-carboxamide] returned a half-inhibitory concentration (IC50) of 33.7 nM.

In assay [1], `C=CC(=O)N1CC(C2(C)CCNc3c(C(N)=O)c(-c4ccc(Oc5ccccc5)cc4)nn32)C1` (stereo not shown) [Compound 175, 7-(1-Acryloylazetidin-3-yl)-7-methyl-2-(4-phenoxyphenyl)-4,5,6,7-tetrahydropyrazolo-[1,5-a]pyrimidine-3-carboxamide] gave a half-inhibitory concentration (IC50) of 17.6 nM.

In assay [1], `NC(=O)c1c(-c2ccc(Oc3ccccc3)cc2)nn2c1NCC[C@H]2C1CCN(C(=O)CCCl)CC1` [Compound 177, (S)-7-(1-(3-chloropropanoyl)piperidin-4-yl)-2-(4-phenoxy-phenyl)-4,5,6,7-tetrahydropyrazolo-[1,5-a]pyrimidine-3-carboxamide] yielded an IC50 of 3.9 nM.

As for `NC(=O)c1c(-c2ccc(Oc3ccccc3)cc2)nn2c1NCC[C@H]2C1CCN(C(=O)/C=C/CN2CCN(CCNC(=O)CCCC(=O)NCCCOCCOCCOCCCNC(=O)CCCC[C@H]3SC[C@H]4NC(=O)N[C@H]43)CC2)CC1` [Compound 178, N1-(2-(4-((E)-4-(4-((S)-3-carbamoyl-2-(4-phenoxyphenyl)-4,5,6,7-tetrahydropyrazolo[1,5-a]pyrimidin-7-yl)piperidin-1-yl)-4-oxobut-2-en-1-yl)piperazin-1-yl)ethyl)-N5-(15-oxo-19-((3aR,4R,6aS)-2-oxohexahydro-1H-thieno[3,4-d]imidazol-4-yl)-4,7,10-trioxa-14-azanonadecyl)glutaramide trifluoroacetate], the IC50 at Recombinant Btk was 46 nM; in assay [1], over 1000 nM.

In turn, `CC#CC(=O)N1CC(C2CCNc3c(C(N)=O)c(-c4ccc(Oc5ccccc5)cc4)nn32)C1` (stereo not shown) [Compound 184, 7-(1-(But-2-ynoyl)azetidin-3-yl)-2-(4-phenoxyphenyl)-4,5,6,7-tetrahydropyrazolo-[1,5-a]pyrimidine-3-carboxamide] displayed an IC50 in assay [1] of 6.7 nM.

In assay [1], `CCC#CC(=O)N1CCC([C@@H]2CCNc3c(C(N)=O)c(-c4ccc(Oc5ccccc5)cc4)nn32)CC1` [Compound 186, (S)-7-(1-(Pent-2-ynoyl)piperidin-4-yl)-2-(4-phenoxyphenyl)-4,5,6,7-tetrahydropyrazolo-[1,5-a]pyrimidine-3-carboxamide] returned an IC50 of 10.3 nM.

Take `NC(=O)c1c(-c2ccc(Oc3ccccc3)cc2)nn2c1NCC[C@H]2C1CCN(C(=O)C#CCN2CCCC2)CC1` [Compound 187, (S)-2-(4-Phenoxyphenyl)-7-(1-(4-(pyrrolidin-1-yl)but-2-ynoyl)piperidin-4-yl)-4,5,6,7-tetrahydropyrazolo-[1,5-a]pyrimidine-3-carboxamide]: half-maximal inhibition in assay [1] (IC50) was put at 7.3 nM.

With `CN(C)CC#CC(=O)N1CCC([C@@H]2CCNc3c(C(N)=O)c(-c4ccc(Oc5ccccc5)cc4)nn32)CC1` [Compound 188, (S)-7-(1-(4-(Dimethylamino)but-2-ynoyl)piperidin-4-yl)-2-(4-phenoxyphenyl)-4,5,6,7-tetrahydropyrazolo-[1,5-a]pyrimidine-3-carboxamide], the half-maximal inhibitory concentration (IC50) in assay [1] came out at 8.5 nM.

In the case of `C=CC(=O)Nc1ccccc1C1CCNc2c(C(N)=O)c(-c3ccc(F)c(Cl)c3)nn21` (stereo not shown) [Compound 196, 7-(2-Acrylamidophenyl)-2-(3-chloro-4-fluorophenyl)-4,5,6,7-tetrahydropyrazolo-[1,5-a]pyrimidine-3-carboxamide], the IC50 in assay [1] amounted to 2 nM.
